Source: patent US11046649B2, “Compounds useful as inhibitors of indoleamine 2,3-dioxygenase and/or tryptophan dioxygenase” (Board of Regents, The University of Texas System, priority 2018, dated 2021)

Target: T1, IDO1 (Homo sapiens, UniProt P14902)
T1 construct: endogenous in cells; host or cells: HeLa cells (ATCC), IDO1 induced with 10 ng/mL IFNgamma
Test: IDO1 cell-based assay
Settings: HeLa cells, 10 ng/mL IFNgamma, 24 hours with test compound; N-Formyl Kynurenine and L-tryptophan quantified by RFMS

T1 sequence (P14902 whole entry): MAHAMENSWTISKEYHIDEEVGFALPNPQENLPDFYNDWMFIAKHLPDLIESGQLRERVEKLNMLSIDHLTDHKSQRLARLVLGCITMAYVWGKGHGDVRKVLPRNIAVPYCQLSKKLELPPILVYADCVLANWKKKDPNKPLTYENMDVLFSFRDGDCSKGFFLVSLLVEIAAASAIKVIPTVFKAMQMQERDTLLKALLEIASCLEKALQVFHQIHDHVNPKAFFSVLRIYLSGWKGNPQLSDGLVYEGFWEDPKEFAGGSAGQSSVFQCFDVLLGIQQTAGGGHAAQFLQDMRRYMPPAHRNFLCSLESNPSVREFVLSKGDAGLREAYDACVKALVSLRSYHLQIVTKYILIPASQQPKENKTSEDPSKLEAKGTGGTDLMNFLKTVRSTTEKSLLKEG

Row | Molecule | IC50 [µM]
1 | 2-((1R,3s,5S,6r)-3-((6- fluoroquinolin-4-yl)oxy)- bicyclo[3.1.0]hexan-6-yl)- N-(1-(trifluoromethyl)-1H- pyrazol-3-yl)propanamide [Example 102] | 0.0037
2 | 2-((1R,3s,5S,6r)-3-((6- fluoroquinolin-4-yl)oxy)- bicyclo[3.1.0]hexan-6-yl)- N-(5-(4-methyl-4H-1,2,4- triazol-3-yl)pyridin-2-yl)- propanamide [Example 97] | 0.818
3 | CC(C(=O)Nc1ccc(F)cn1)[C@H]1[C@@H]2C[C@@H](n3cnc4cc(F)c(F)cc43)C[C@@H]21 (stereo partly drawn) [Example 4, 2-((1R,3s,5S,6r)-3-(5,6-difluoro-1H-benzo[d]imidazol-1-yl)bicyclo[3.1.0]hexan-6-yl)-N-(5-fluoropyridin-2-yl)propanamide] | 0.0051
4 | COc1ccc(-c2ccc(NC(=O)[C@@H](C)[C@H]3[C@@H]4C[C@@H](n5cnc6cc(F)c(F)cc65)C[C@@H]43)cc2)cn1 [Example 6, (S)-2-((1R,3R,5S,6r)-3-(5,6-difluoro-1H-benzo[d]imidazol-1-yl)bicyclo[3.1.0]hexan-6-yl)-N-(4-(6-methoxypyridin-3-yl)phenyl)propanamide] | 0.329
5 | CC(C(=O)NC12CC(CO)(C1)C2)[C@H]1[C@@H]2C[C@@H](Oc3ccnc4ccc(F)cc34)C[C@@H]21 (stereo partly drawn) [Example 7, 2-((1R,3s,5S,6r)-3-((6-fluoroquinolin-4-yl)oxy)bicyclo[3.1.0]hexan-6-yl)-N-(3-(hydroxy-methyl)bicyclo[1.1.1]pentan-1-yl)propanamide] | 0.469
6 | CC(C(=O)NC12CC(CC#N)(C1)C2)[C@H]1[C@@H]2C[C@@H](Oc3ccnc4ccc(F)cc34)C[C@@H]21 (stereo partly drawn) [Example 8, N-(3-(cyanomethyl)bicyclo[1.1.1]pentan-1-yl)-2-((1R,3s,5S,6r)-3-((6-fluoroquinolin-4-yl)-oxy)bicyclo[3.1.0]hexan-6-yl)propanamide] | 0.0513
7 | COCC12CC(NC(=O)C(C)[C@H]3[C@@H]4C[C@@H](Oc5ccnc6ccc(F)cc56)C[C@@H]43)(C1)C2 (stereo partly drawn) [Example 9, 2-((1R,3s,5S,6r)-3-((6-fluoroquinolin-4-yl)oxy)bicyclo[3.1.0]hexan-6-yl)-N-(3-(methoxymethyl)bicyclo[1.1.1]pentan-1-yl)propanamide] | 0.055
8 | CC(C(=O)NC12CC(N)(C1)C2)[C@H]1[C@@H]2C[C@@H](Oc3ccnc4ccc(F)cc34)C[C@@H]21 (stereo partly drawn) [Example 11, N-(3-aminobicyclo[1.1.1]pentan-1-yl)-2-((1R,3s,5S,6r)-3-((6-fluoroquinolin-4-yl)oxy)-bicyclo-[3.1.0]hexan-6-yl)propanamide] | 1.6
9 | CCC(c1nc2cc(C(F)(F)F)ccc2[nH]1)[C@H]1[C@@H]2C[C@@H](Oc3ccnc4ccc(F)cc34)C[C@@H]21 (stereo partly drawn) [Example 12] | 0.00085
10 | CC(C(=O)NC12CC(C(C)O)(C1)C2)[C@H]1[C@@H]2C[C@@H](n3cnc4cc(F)c(F)cc43)C[C@@H]21 (stereo partly drawn) [Example 13, 2-((1R,3s,5S,6r)-3-(5,6-difluoro-1H-benzo[d]imidazol-1-yl)bicyclo[3.1.0]hexan-6-yl)-N-(3-(1-hydroxyethyl)bicyclo[1.1.1]pentan-1-yl)propanamide] | 0.626
11 | CC(C(=O)Nc1ccc(Cl)cc1)[C@H]1[C@@H]2C[C@@H](n3cnc4ccc(C#N)cc43)C[C@@H]21 (stereo partly drawn) [Example 16, N-(4-chlorophenyl)-2-((1R,3s,5S,6r)-3-(6-cyano-1H-benzo[d]imidazol-1-yl)-bicyclo[3.1.0]hexan-6-yl)-propanamide] | 0.0044
12 | CC(C(=O)Nc1ccc(C(F)(F)F)cn1)[C@H]1[C@@H]2C[C@@H](n3cnc4cc(F)c(F)cc43)C[C@@H]21 (stereo partly drawn) [Example 18, 2-((1R,3s,5S,6r)-3-(5,6-difluoro-1H-benzo[d]-imidazol-1-yl)bicyclo-[3.1.0]hexan-6-yl)-N-(5-(trifluoromethyl)pyridin-2-yl)propanamide] | 0.0048
13 | CC(C(=O)Nc1ccc(Cl)cn1)[C@H]1[C@@H]2C[C@@H](n3cnc4cc(F)c(F)cc43)C[C@@H]21 (stereo partly drawn) [Example 22, N-(5-chloropyridin-2-yl)-2-((1R,3s,5S,6r)-3-(5,6-difluoro-1H-benzo[d]-imidazol-1-yl)bicyclo-[3.1.0]hexan-6-yl)-propanamide] | 0.0025
14 | CC(C(=O)NC12CC(C#N)(C1)C2)[C@H]1[C@@H]2C[C@@H](n3cnc4cc(F)c(F)cc43)C[C@@H]21 (stereo partly drawn) [Example 23, N-(3-cyanobicyclo-[1.1.1]pentan-1-yl)-2-((1R,3s,5S,6r)-3-(5,6-difluoro-1H-benzo[d]-imidazol-1-yl)bicyclo-[3.1.0]hexan-6-yl)-propanamide] | 1.65
15 | CC(C(=O)NC12CC(C(F)(F)F)(C1)C2)[C@H]1[C@@H]2C[C@@H](n3cnc4cc(F)c(F)cc43)C[C@@H]21 (stereo partly drawn) [Example 24, 2-((1R,3s,5S,6r)-3-(5,6-difluoro-1H-benzo[d]-imidazol-1-yl)bicyclo-[3.1.0]hexan-6-yl)-N-(3-(trifluoromethyl)bicyclo [1.1.1]pentan-1-yl)-propanamide] | 0.117
16 | CC(C(=O)NC1CC(F)C1)[C@H]1[C@@H]2C[C@@H](n3cnc4cc(F)c(F)cc43)C[C@@H]21 (stereo partly drawn) [Example 25, 2-((1R,3s,5S,6r)-3-(5,6-difluoro-1H-benzo[d]-imidazol-1-yl)bicyclo-[3.1.0]hexan-6-yl)-N-(3-fluorocyclobutyl)-propanamide] | 3.42
17 | COc1ccc(NC(=O)C(C)[C@H]2[C@@H]3C[C@@H](n4cnc5cc(F)c(F)cc54)C[C@@H]32)nc1 (stereo partly drawn) [Example 27, 2-((1R,3s,5S,6r)-3-(5,6-difluoro-1H-benzo[d]-imidazol-1-yl)bicyclo-[3.1.0]hexan-6-yl)-N-(5-methoxypyridin-2-yl)-propanamide] | 0.00663
18 | CC(C(=O)NC12CC(F)(C1)C2)[C@H]1[C@@H]2C[C@@H](n3cnc4cc(F)c(F)cc43)C[C@@H]21 (stereo partly drawn) [Example 28, 2-((1R,3s,5S,6r)-3-(5,6-difluoro-1H-benzo[d]-imidazol-1-yl)bicyclo-[3.1.0]hexan-6-yl)-N-(3-fluorobicyclo[1.1.1]pentan-1-yl)propanamide] | 2.52
19 | Cc1ccc(NC(=O)C(C)[C@H]2[C@@H]3C[C@@H](n4cnc5cc(F)c(F)cc54)C[C@@H]32)nc1 (stereo partly drawn) [Example 29, 2-((1R,3s,5S,6r)-3-(5,6-difluoro-1H-benzo[d]-imidazol-1-yl)bicyclo-[3.1.0]hexan-6-yl)-N-(5-methylpyridin-2-yl)-propanamide] | 0.0109
20 | CC(C(=O)NC1CC(F)(F)C1)[C@H]1[C@@H]2C[C@@H](n3cnc4cc(F)c(F)cc43)C[C@@H]21 (stereo partly drawn) [Example 30, 2-((1R,3s,5S,6r)-3-(5,6-difluoro-1H-benzo[d]-imidazol-1-yl)bicyclo-[3.1.0]hexan-6-yl)-N-(3,3-difluorocyclobutyl)-propanamide] | 1.64
21 | CC(C(=O)Nc1cnn(C)c1)[C@H]1[C@@H]2C[C@@H](n3cnc4cc(F)c(F)cc43)C[C@@H]21 (stereo partly drawn) [Example 31, 2-((1R,3s,5S,6r)-3-(5,6-difluoro-1H-benzo[d]-imidazol-1-yl)bicyclo-[3.1.0]hexan-6-yl)-N-(1-methyl-1H-pyrazol-4-yl)-propanamide] | 0.141
